The record followed here is patent US8871756B2 (Hoffmann-La Roche Inc., priority 2011, dated 2014).

Counter-ions that a name gives are not always drawn.

One experiment relates to RSV Long strain. The experiment in a line: Viral cytopathic effect (CPE) assay, anti-RSV activity. In kind it is cell-based, Respiratory Syncytial Virus. As to conditions: RSV Long strain (ATCC); cell viability after 6 days, Cell Counting kit-8. Put shortly: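 Cells (6×10^3/well, DMEM with 10% FBS) were infected next day with RSV Long strain, at a dose giving approximately 80–90% CPE, alongside serial half-log compound dilutions. Viability was read after 6 days by CCK-8 absorbance at 450 nm (reference 630 nm), and EC50 was derived from it.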
(Cytopathic effects are the visible damage that an infection or toxin causes in cultured cells.)
`Cc1ccc2nc(N3CC[S+]([O-])c4ccccc4C3)nc(NCC3(CN)COC3)c2c1` (single isomer, unassigned; (-)) [Example 62-2]: the response was half-maximal at 0.0017 µM (EC50).

Staying with this experiment, now noted: human respiratory syncytial virus, 144 h, RSV Long strain (ATCC); cell viability after 6 days, Cell Counting kit-8.
Turning to `COc1ccc2c(c1)CCCN(c1cc(NCCN)c3ccccc3n1)C2` [Example 118-15, N-[2-(7-Methoxy-1,3,4,5-tetrahydro-2H-2-benzazepin-2-yl)quinolin-4-yl]ethane-1,2-diamine], the half-maximal effective concentration (EC50) (as a rule, the concentration giving half of the maximal effect) is 0.626 µM.

`NCCNc1cc(N2CCCc3ccccc3C2)nc2ccc(Oc3ccccn3)cc12` [Example 122, N-[6-(Pyridin-2-yloxy)-2-(1,3,4,5-tetrahydro-2H-2-benzazepin-2-yl)quinolin-4-yl]ethane-1,2-diamine] returned an EC50 of 3.12 µM.

As for `NCCNc1cc(N2CCS(=O)(=O)c3ccccc3C2)nc2ccccc12` [Example 9-15, N-[2-(1,1-Dioxido-2,3-dihydro-1,4-benzothiazepin-4(5H)-yl)quinolin-4-yl]ethane-1,2-diamine], the EC50 amounted to 0.012 µM.

As to `Cc1ccc2nc(N3CCS(=O)(=O)c4ccccc4C3)cc(NC(=O)C3CCNCC3)c2c1` [Example 3-62, N-[2-(1,1-Dioxido-2,3-dihydro-1,4-benzothiazepin-4(5H)-yl)-6-methylquinolin-4-yl]piperidine-4-carboxamide], the midpoint of the response, the EC50, lay at 0.589 µM.

In turn, `NCCNc1cc(N2CCCc3ccccc3C2)nc2ccc(F)cc12` [Example 118-21, N-[6-Fluoro-2-(1,3,4,5-tetrahydro-2H-2-benzazepin-2-yl)quinolin-4-yl]ethane-1,2-diamine] returned an EC50 of 1.38 µM.

As to `NCC1(CNc2cc(N3CCS(=O)(=O)c4ccccc4C3)nc3ccc(C(=O)O)cc23)COC1` [Example 105, 4-({[3-(Aminomethyl)oxetan-3-yl]methyl}amino)-2-(1,1-dioxido-2,3-dihydro-1,4-benzothiazepin-4(5H)-yl)quinoline-6-carboxylic acid], the EC50 was determined as 1.08 µM.

`Cc1ccc2nc(N3CCS(=O)(=O)c4ccccc4C3)cc(NS(=O)(=O)C(F)(F)F)c2c1` [Example 3-57, N-[2-(1,1-Dioxido-2,3-dihydro-1,4-benzothiazepin-4(5H)-yl)-6-methylquinolin-4-yl]-1,1,1-trifluoromethanesulfonamide hydrochloride] gave a 50% effective concentration (EC50) of 7.53 µM.

`Cc1ccc2nc(N3CCC(F)(F)c4ccccc4C3)cc(NCC3(CN)CS(=O)(=O)C3)c2c1` [Example 112-1, N-{[3-(Aminomethyl)-1,1-dioxidothietan-3-yl]methyl}-2-(5,5-difluoro-1,3,4,5-tetrahydro-2H-2-benzazepin-2-yl)-6-methylquinolin-4-amine] returned an EC50 of 3.74 µM.

For the molecule `O=S1(=O)CCN(c2cc(N[C@@H]3CNC[C@H]3O)c3ccccc3n2)Cc2ccccc21` (relative stereo) [Example 28-2, trans-4-{[2-(1,1-Dioxido-2,3-dihydro-1,4-benzothiazepin-4(5H)-yl)quinolin-4-yl]amino}pyrrolidin-3-ol], the EC50 was 0.007 µM.

For the molecule `Cc1ccc2nc(N3CC[S+]([O-])c4ccccc4C3)nc(NCC3(N)COC3)c2c1` (stereo not drawn) [Example 55-1, N-[(3-Aminooxetan-3-yl)methyl]-6-methyl-2-(1-oxido-2,3-dihydro-1,4-benzothiazepin-4(5H)-yl)quinazolin-4-amine], the 50% effective concentration (EC50) worked out at 0.007 µM.

In the case of `[2H]C([2H])([2H])c1ccc2nc(N3CC[S+]([O-])c4ccccc4C3)nc(NCC3(CN)COC3)c2c1` (stereo not drawn) [Example 107, N-{[3-(Aminomethyl)oxetan-3-yl]methyl}-6-trideuteriomethyl-2-(1-oxido-2,3-dihydro-1,4-benzothiazepin-4(5H)-yl)quinazolin-4-amine], a half-maximal response (EC50) required 0.001 µM.

`Cc1ccc2nc(N3CCS(=O)(=O)c4ccccc4C3)cc(NCC3CCN3)c2c1` (stereo not drawn) [Example 21-3, N-(Azetidin-2-ylmethyl)-2-(1,1-dioxido-2,3-dihydro-1,4-benzothiazepin-4(5H)-yl)-6-methylquinolin-4-amine] gave an EC50 of 0.015 µM.

As for `Cc1ccc2nc(N3CCS(=O)(=O)c4ccccc4C3)cc(NCC3(CO)COC3)c2c1` [Example 3-9, [3-({[2-(1,1-Dioxido-2,3-dihydro-1,4-benzothiazepin-4(5H)-yl)-6-methylquinolin-4-yl]amino}methyl)oxetan-3-yl]methanol], the EC50 turned out to be 0.248 µM.

On to `Cc1ccc2nc(N3CCS(=O)(=O)c4ccc(N5CCOCC5)cc4C3)cc(NCC3(N)COC3)c2c1` [Example 33-1, N-[(3-Aminooxetan-3-yl)methyl]-2-(7-morpholin-4-yl-1,1-dioxido-2,3-dihydro-1,4-benzothiazepin-4(5H)-yl)-6-methylquinolin-4-amine], for which the response was half-maximal at 0.044 µM (EC50).

`COc1ccc2c(c1)S(=O)(=O)CCN(c1cc(NCC3(N)COC3)c3cc(Cl)ccc3n1)C2` [Example 3-13, N-[(3-Aminooxetan-3-yl)methyl]-6-chloro-2-(8-methoxy-1,1-dioxido-2,3-dihydro-1,4-benzothiazepin-4(5H)-yl)quinolin-4-amine] showed an EC50 of 0.099 µM.

`C#Cc1ccc2nc(N3CCS(=O)(=O)c4ccccc4C3)cc(NCCCN)c2c1` [Example 54, N-[2-(1,1-Dioxido-2,3-dihydro-1,4-benzothiazepin-4(5H)-yl)-6-ethynylquinolin-4-yl]propane-1,3-diamine] showed an EC50 of 4.8 µM.

Molecule `Cc1ccc2nc(N3CCS(=O)(=O)c4ccccc4C3)cc(N3C[C@H](O)CC3=O)c2c1` [Example 47-1, (4R)-1-[2-(1,1-Dioxido-2,3-dihydro-1,4-benzothiazepin-4(5H)-yl)-6-methylquinolin-4-yl]-4-hydroxypyrrolidin-2-one] displayed an EC50 of 7.88 µM.

The molecule `NCC1(CNc2cc(N3CC[S+]([O-])c4ccccc4C3)nc3ccc(Cl)cc23)COC1` (stereo not drawn) [Example 18-9, N-{[3-(Aminomethyl)oxetan-3-yl]methyl}-6-chloro-2-(1-oxido-2,3-dihydro-1,4-benzothiazepin-4(5H)-yl)quinolin-4-amine] registered an EC50 of 0.005 µM.

On to `Cc1cccc2c(NCCCCCCCCN)cc(N3CCS(=O)(=O)c4ccccc4C3)nc12` [Example 12-7, N-[2-(1,1-Dioxido-2,3-dihydro-1,4-benzothiazepin-4(5H)-yl)-8-methylquinolin-4-yl]octane-1,8-diamine], for which the midpoint of the response, the EC50, lay at 0.226 µM.

For `Cc1ccc2nc(N3CCS(=O)(=O)c4ccccc4C3)nc(NCC(F)(F)CN)c2c1` [Example 56-4, N-[2-(1,1-Dioxido-2,3-dihydro-1,4-benzothiazepin-4(5H)-yl)-6-methylquinazolin-4-yl]-2,2-difluoropropane-1,3-diamine], the 50% effective concentration (EC50) came to 0.027 µM.

For the molecule `NCCNc1cc(N2CCOc3ccccc3C2)nc2ccccc12` [Example 134, N-[2-(2,3-Dihydro-1,4-benzoxazepin-4(5H)-yl)quinolin-4-yl]ethane-1,2-diamine], the response was half-maximal at 0.25 µM (EC50).

Molecule `Cc1ccc2nc(N3CCS(=O)(=O)c4ccccc4C3)cc(NC3CCNC3)c2c1` (stereo not drawn) [Example 21-4, 2-(1,1-Dioxido-2,3-dihydro-1,4-benzothiazepin-4(5H)-yl)-6-methyl-N-(pyrrolidin-3-yl)quinolin-4-amine] yielded an EC50 of 0.004 µM.

For `Cc1ccc2nc(N3CCS(=O)(=O)c4ccccc4C3)cc(NCCN)c2c1F` [Example 9-21, N-[2-(1,1-Dioxido-2,3-dihydro-1,4-benzothiazepin-4(5H)-yl)-5-fluoro-6-methylquinolin-4-yl]ethane-1,2-diamine], the EC50 came to 0.021 µM.
